In US11123337B2, “4-methylsulfonyl-substituted piperidine urea compounds” (MYOKARDIA, INC., priority 2015, dated 2021):

These compounds were tested against bovine cardiac myosin (Bos taurus, UniProt Q9BE39) (assay: Myosin activation assay (PK/LDH-coupled ATPase, bovine cardiac myofibrils)). Details: AC20 = concentration at which total response is increased by twenty percent.
Assay type: biochemical
Procedure: Small molecule agents were assessed for their ability to activate the enzymatic activity of bovine cardiac myosin using a biochemical assay that couples the release of ADP (adenosine diphosphate) from cardiac myosin to an enzymatic coupling system consisting of pyruvate kinase and lactate dehydrogenase (PK/LDH) and monitoring the absorbance decrease of NADH (at 340 nm) as a function of time. PK converts ADP to ATP (adenosine triphosphate) by converting PEP (phosphoenolpyruvate) to pyruvate. Pyruvate is then converted to lactate by LDH by converting NADH (nicotinamide adenine dinucleotide) to NAD (oxidized nicotinamide adenine dinucleotide). The source of cardiac myosin was from bovine heart in the form of skinned myofibrils. Prior to testing small molecule agents, the bovine myofibrils were assessed for their calcium responsiveness and the calcium concentration that achieves either a 50% (pCa50 or pCa=˜6) or <5% (pCa=10) activation of the myofibril system was chosen as the final condition for assessing the activation activity of the small molecule agents. All enzymatic activity was measured in a buffered solution containing 12 mM PIPES (piperazine-N,N′-bis(2-ethanesulfonic acid), 2 mM magnesium chloride at pH 6.8 (PM12 buffer). Final assay conditions were 1 mg/mL of bovine cardiac myofibrils, 0.4 mM PK/LDH, 50 uM ATP, 0.1 mg/mL BSA (bovine serum albumin), 10 ppm antifoam, 2 mM BME, 0.5 mM NADH, 1.5 mM PEP at the desired free calcium concentration required to achieve either 50% or <5% activation of the myofibrils.
A dilution series of compound was created in DMSO such that the final desired concentration of compound would be achieved in a volume of […] with a fixed DMSO concentration of 3.3% (v/v). Typically a 1 μL of the dilution series was added to a 384 well plate to achieve a 10 point dose response. Following the addition of 14 μL of a solution containing bovine cardiac myofibrils, PK/LDH and a solution of calcium (that achieved the desired activation), the enzymatic reaction was started with the addition of 15 μL of a solution containing ATP, PEP and NADH. The reaction progress was followed in a PerkinElmer Envision plate reader at ambient temperature using clear bottom plates. The plate reader was configured to read absorbance at 340 nm in kinetics mode for 15 minutes. Data were recorded as the slope of the absorbance response to time. The slopes of the absorbance response as a function of time were normalized to slopes on the plate containing DMSO. This normalized rate was then plotted as a function of small molecule concentration and the data was fitted to a four-parameter fit using EXCEL XLfit. The concentration at which the total response is increased by twenty or fifty percent is reported as AC20 or AC50.

Chain of bovine cardiac myosin (Q9BE39 whole entry): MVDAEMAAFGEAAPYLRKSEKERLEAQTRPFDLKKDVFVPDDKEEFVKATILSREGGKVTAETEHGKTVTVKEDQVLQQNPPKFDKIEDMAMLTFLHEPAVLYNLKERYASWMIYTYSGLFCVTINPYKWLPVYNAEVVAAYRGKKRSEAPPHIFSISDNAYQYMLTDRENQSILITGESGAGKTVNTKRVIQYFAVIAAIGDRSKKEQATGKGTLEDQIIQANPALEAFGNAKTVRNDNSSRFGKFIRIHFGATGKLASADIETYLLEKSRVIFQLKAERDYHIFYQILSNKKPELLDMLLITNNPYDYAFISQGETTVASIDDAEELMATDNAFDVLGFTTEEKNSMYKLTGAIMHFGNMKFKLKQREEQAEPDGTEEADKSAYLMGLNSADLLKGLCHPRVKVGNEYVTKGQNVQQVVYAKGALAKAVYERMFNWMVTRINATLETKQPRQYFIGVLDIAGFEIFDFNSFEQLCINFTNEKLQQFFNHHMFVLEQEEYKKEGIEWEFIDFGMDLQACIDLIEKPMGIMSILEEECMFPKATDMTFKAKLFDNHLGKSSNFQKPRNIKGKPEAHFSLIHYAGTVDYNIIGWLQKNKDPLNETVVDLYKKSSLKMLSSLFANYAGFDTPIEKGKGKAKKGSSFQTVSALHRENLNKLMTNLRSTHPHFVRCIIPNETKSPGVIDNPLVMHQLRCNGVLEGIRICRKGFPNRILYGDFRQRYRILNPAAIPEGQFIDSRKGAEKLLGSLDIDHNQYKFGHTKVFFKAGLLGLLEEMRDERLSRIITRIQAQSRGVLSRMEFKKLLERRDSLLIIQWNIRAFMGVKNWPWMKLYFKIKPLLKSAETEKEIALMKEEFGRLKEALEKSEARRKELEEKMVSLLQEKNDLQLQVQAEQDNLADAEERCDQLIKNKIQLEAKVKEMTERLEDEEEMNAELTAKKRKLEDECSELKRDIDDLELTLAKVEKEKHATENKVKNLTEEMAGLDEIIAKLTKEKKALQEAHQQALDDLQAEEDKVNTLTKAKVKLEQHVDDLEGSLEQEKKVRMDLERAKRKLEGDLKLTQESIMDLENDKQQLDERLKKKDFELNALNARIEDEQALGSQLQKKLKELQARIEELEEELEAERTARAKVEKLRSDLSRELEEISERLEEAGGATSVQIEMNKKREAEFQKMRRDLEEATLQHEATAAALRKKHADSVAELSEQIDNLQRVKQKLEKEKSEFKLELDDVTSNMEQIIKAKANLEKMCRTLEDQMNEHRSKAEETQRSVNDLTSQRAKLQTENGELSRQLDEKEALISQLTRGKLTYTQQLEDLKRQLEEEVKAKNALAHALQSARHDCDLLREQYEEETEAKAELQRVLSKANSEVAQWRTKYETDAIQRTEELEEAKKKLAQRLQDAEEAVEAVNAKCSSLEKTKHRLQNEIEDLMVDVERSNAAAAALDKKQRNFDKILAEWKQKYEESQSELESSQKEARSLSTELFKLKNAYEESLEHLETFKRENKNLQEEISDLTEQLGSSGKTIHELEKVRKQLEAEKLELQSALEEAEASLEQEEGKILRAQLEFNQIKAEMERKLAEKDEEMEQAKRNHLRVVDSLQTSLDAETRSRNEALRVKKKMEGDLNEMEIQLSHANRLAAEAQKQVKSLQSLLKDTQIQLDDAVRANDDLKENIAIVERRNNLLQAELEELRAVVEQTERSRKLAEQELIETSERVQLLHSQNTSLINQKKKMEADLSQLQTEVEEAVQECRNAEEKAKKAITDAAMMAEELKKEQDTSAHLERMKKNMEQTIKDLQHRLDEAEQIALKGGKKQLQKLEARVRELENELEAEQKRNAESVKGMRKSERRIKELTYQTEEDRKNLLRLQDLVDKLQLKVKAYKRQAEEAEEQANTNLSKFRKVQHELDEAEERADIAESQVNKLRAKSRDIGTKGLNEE
Chain of bovine cardiac myosin (P85100 whole entry partner): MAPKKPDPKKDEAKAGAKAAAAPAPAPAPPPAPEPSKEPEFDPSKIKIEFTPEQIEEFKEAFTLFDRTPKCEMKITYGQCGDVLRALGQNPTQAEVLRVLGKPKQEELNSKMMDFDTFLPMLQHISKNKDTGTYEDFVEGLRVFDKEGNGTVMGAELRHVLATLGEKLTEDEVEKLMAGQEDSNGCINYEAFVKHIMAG
Chain of bovine cardiac myosin (Q3SZE5 whole entry partner): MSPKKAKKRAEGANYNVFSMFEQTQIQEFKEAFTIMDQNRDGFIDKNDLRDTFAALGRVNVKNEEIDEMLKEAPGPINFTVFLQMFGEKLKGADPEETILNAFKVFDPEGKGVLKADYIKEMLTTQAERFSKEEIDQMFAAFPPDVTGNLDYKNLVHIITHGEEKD

Row | Compound | Myosin Activation (AC20)
1 | COc1ccc(S(=O)(=O)[C@](C)(F)C2CCN(C(=O)Nc3ccon3)CC2)cn1 [Compound 307, (S)-4-(1-fluoro-1-((6-methoxypyridin-3-yl)sulfonyl)ethyl)-N-(isoxazol-3-yl)piperidine-1-carboxamide] | + (+ represents myosin activation value AC20 > 5 μM)
2 | O=C(Nc1cnns1)N1CCC(C(F)(F)S(=O)(=O)c2cccc(F)c2)CC1 [Compound 44, 4-(difluoro((3-fluorophenyl)sulfonyl)methyl)-N-(1,2,3-thiadiazol-5-yl)piperidine-1-carboxamide] | + (+ represents myosin activation value AC20 > 5 μM)
3 | CC(F)(C1CCN(C(=O)Nc2ccc(F)nc2)CC1)S(=O)(=O)c1ccc(C(F)(F)F)cc1 (stereo not drawn) [Compound 242, 4-(1-fluoro-1-((4-(trifluoromethyl)phenyl)sulfonyl)ethyl)-N-(6-fluoropyridin-3-yl)piperidine-1-carboxamide] | ++ (++ represents myosin activation value AC20 from 2 μM-5 μM)
4 | CC(F)(C1CCN(C(=O)Nc2ccnc(F)c2)CC1)S(=O)(=O)c1cccc(F)c1 (stereo not drawn) [Compound 236, 4-(1-fluoro-1-((3-fluorophenyl)sulfonyl)ethyl)-N-(2-fluoropyridin-4-yl)piperidine-1-carboxamide] | ++ (++ represents myosin activation value AC20 from 2 μM-5 μM)
5 | N#Cc1ccc(S(=O)(=O)C(F)(F)C2CCN(C(=O)Nc3ccnnc3)CC2)c(Cl)c1 [Compound 76, 4-(((2-chloro-4-cyanophenyl)sulfonyl)difluoromethyl)-N-(pyridazin-4-yl)piperidine-1-carboxamide] | ++ (++ represents myosin activation value AC20 from 2 μM-5 μM)
6 | Cn1cc(S(=O)(=O)[C@](C)(F)C2CCN(C(=O)Nc3ccnc(F)c3)CC2)c(C(F)F)n1 [Compound 231, (S)-4-(1-((3-(difluoromethyl)-1-methyl-1H-pyrazol-4-yl)sulfonyl)-1-fluoroethyl)-N-(2-fluoropyridin-4-yl)piperidine-1-carboxamide] | + (+ represents myosin activation value AC20 > 5 μM)
7 | Cc1ccc(F)cc1S(=O)(=O)C(F)(F)C1CCN(C(=O)Nc2ccnnc2)CC1 [Compound 63, 4-(difluoro((5-fluoro-2-methylphenyl)sulfonyl)methyl)-N-(pyridazin-4-yl)piperidine-1-carboxamide] | ++ (++ represents myosin activation value AC20 from 2 μM-5 μM)
8 | O=C(Nc1ccnnc1)N1CCC(C(F)(F)S(=O)(=O)c2ccc(O)cc2Cl)CC1 [Compound 92, 4-(((2-chloro-4-hydroxyphenyl)sulfonyl)difluoromethyl)-N-(pyridazin-4-yl)piperidine-1-carboxamide] | ++ (++ represents myosin activation value AC20 from 2 μM-5 μM)
9 | Cn1cc(S(=O)(=O)[C@@](C)(F)C2CCN(C(=O)Nc3ccc(F)nc3)CC2)c(C(F)F)n1 [Compound 259, (R)-4-(1-((3-(difluoromethyl)-1-methyl-1H-pyrazol-4-yl)sulfonyl)-1-fluoroethyl)-N-(6-fluoropyridin-3-yl)piperidine-1-carboxamide] | +++ (+++ represents myosin activation value AC20 < 2 μM)
10 | O=C(Nc1ccnnc1)N1CCC(C(F)(F)S(=O)(=O)c2cnn3ccccc23)CC1 [Compound 93, 4-(difluoro(pyrazolo[1,5-a]pyridin-3-ylsulfonyl)methyl)-N-(pyridazin-4-yl)piperidine-1-carboxamide] | ++ (++ represents myosin activation value AC20 from 2 μM-5 μM)
11 | O=C(Nc1ccnnc1)N1CCC(C(F)(F)S(=O)(=O)c2ccccc2C(F)F)CC1 [Compound 4, 4-(((2-(Difluoromethyl)phenyl)sulfonyl)difluoromethyl)-N-(pyridazin-4-yl)piperidine-1-carboxamide] | ++ (++ represents myosin activation value AC20 from 2 μM-5 μM)
12 | CC(C)(C1CCN(C(=O)Nc2ccnnc2)CC1)S(=O)(=O)c1ccccc1C#N [Compound 204, 4-(2-((2-cyanophenyl)sulfonyl)propan-2-yl)-N-(pyridazin-4-yl)piperidine-1-carboxamide] | + (+ represents myosin activation value AC20 > 5 μM)
13 | Cc1cc(OC(F)(F)F)ccc1S(=O)(=O)C(F)(F)C1CCN(C(=O)Nc2ccnnc2)CC1 [Compound 73, 4-(difluoro((2-methyl-4-(trifluoromethoxy)phenyl)sulfonyl)methyl)-N-(pyridazin-4-yl)piperidine-1-carboxamide] | ++ (++ represents myosin activation value AC20 from 2 μM-5 μM)
14 | Cn1cc(S(=O)(=O)C(F)(F)C2CCN(C(=O)Nc3ccc(C#N)nc3)CC2)c(C(F)F)n1 [Compound 78, N-(6-cyanopyridin-3-yl)-4-(((3-(difluoromethyl)-1-methyl-1H-pyrazol-4-yl)sulfonyl)difluoromethyl)piperidine-1-carboxamide] | + (+ represents myosin activation value AC20 > 5 μM)
15 | Cn1cc(S(=O)(=O)C(C)(F)C2CCN(C(=O)Nc3ccon3)CC2)c(C(F)(F)F)n1 (stereo not drawn) [Compound 16, 4-(1-Fluoro-1-((1-methyl-3-(trifluoromethyl)-1H-pyrazol-4-yl)sulfonyl)ethyl)-N-(isoxazol-3-yl)piperidine-1-carboxamide] | ++ (++ represents myosin activation value AC20 from 2 μM-5 μM)
16 | Cc1ccc(NC(=O)N2CCC(C(C)(C)S(=O)(=O)c3cc(C(F)F)nn3C)CC2)cn1 [Compound 107, 4-(2-((3-(difluoromethyl)-1-methyl-1H-pyrazol-5-yl)sulfonyl)propan-2-yl)-N-(6-methylpyridin-3-yl)piperidine-1-carboxamide] | ++ (++ represents myosin activation value AC20 from 2 μM-5 μM)
17 | CC(F)(C1CCN(C(=O)Nc2ccnnc2)CC1)S(=O)(=O)c1cccc(Cl)c1 (stereo not drawn) [Compound 264, 4-(1-((3-chlorophenyl)sulfonyl)-1-fluoroethyl)-N-(pyridazin-4-yl)piperidine-1-carboxamide] | +++ (+++ represents myosin activation value AC20 < 2 μM)
18 | Cn1nc(C(F)F)cc1S(=O)(=O)C(C)(C)C1CCN(C(=O)Nc2ccon2)CC1 [Compound 108, 4-(2-((3-(difluoromethyl)-1-methyl-1H-pyrazol-5-yl)sulfonyl)propan-2-yl)-N-(isoxazol-3-yl)piperidine-1-carboxamide] | ++ (++ represents myosin activation value AC20 from 2 μM-5 μM)
19 | CC(F)(C1CCN(C(=O)Nc2cnoc2)CC1)S(=O)(=O)c1cccc(F)c1 (stereo not drawn) [Compound 235, 4-(1-fluoro-1-((3-fluorophenyl)sulfonyl)ethyl)-N-(isoxazol-4-yl)piperidine-1-carboxamide] | +++ (+++ represents myosin activation value AC20 < 2 μM)
20 | Cn1cc(S(=O)(=O)C(F)(F)C2CCN(C(=O)Nc3ccc(F)nc3)CC2)c(C(F)F)n1 [Compound 81, 4-(((3-(difluoromethyl)-1-methyl-1H-pyrazol-4-yl)sulfonyl)difluoromethyl)-N-(6-fluoropyridin-3-yl)piperidine-1-carboxamide] | + (+ represents myosin activation value AC20 > 5 μM)
21 | C[C@H](O)c1cc(NC(=O)N2CCC([C@](C)(F)S(=O)(=O)c3cccc(F)c3)CC2)ccn1 [Compound 302, 4-((R)-1-fluoro-1-((3-fluorophenyl)sulfonyl)ethyl)-N-(2-((S)-1-hydroxyethyl)pyridin-4-yl)piperidine-1-carboxamide] | + (+ represents myosin activation value AC20 > 5 μM)
